Laboratory results from the supplement of paper PMC10307832.

Legend:
Assay in all cases: relative viability (nuclei count vs DMSO), 5 days (fraction); higher = more cells survive
[1] = compound: CCn1c(-c2nonc2N)nc2cnc(Oc3cccc(NC(=O)c4ccc(OCCN5CCOCC5)cc4)c3)cc21 + CC1(C)CCC(c2ccc(Cl)cc2)=C(CN2CCN(c3ccc(C(=O)NS(=O)(=O)c4ccc(N[C@H](CCN5CCOCC5)CSc5ccccc5)c(S(=O)(=O)C(F)(F)F)c4)cc3)CC2)C1 [Navitoclax] (partner 0.5 µM)
Method in brief: (§1)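 Five library-drug doses in √10 steps were combined with a fixed anchor-drug dose, or a single drug was given alone, by pin tool to lung cancer cell lines in 1536-well plates the day after seeding. Nuclei were stained and counted after 5 days. Relative viability is the nuclei count in treated wells over that in vehicle wells, taken as the median of duplicate plates.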

[2] = compound: N=C1NC(=O)/C(=C/c2ccc(O)cc2)S1 [Mirin] + O=C(CCCCCCC(=O)Nc1ccccc1)NO [Vorinostat] (partner 1 µM)
Method in brief: as §1

[3] = compound: N=C1NC(=O)/C(=C/c2ccc(O)cc2)S1 [Mirin] + Nc1ncn([C@H]2C[C@H](O)[C@@H](CO)O2)c(=O)n1 [Decitabine] (partner 2 µM)
Method in brief: as §1

[4] = compound: N=C1NC(=O)/C(=C/c2ccc(O)cc2)S1 [Mirin] + NC(=O)Nc1cc(-c2cccc(F)c2)sc1C(=O)N[C@H]1CCCNC1 [AZD7762] (partner 0.2 µM)
Method in brief: as §1

Cell Line | relative viability ([1]; first compound 0.04 µM) | relative viability ([1]; first compound 0.1265 µM) | relative viability ([1]; first compound 0.4 µM) | relative viability ([1]; first compound 1.265 µM) | relative viability ([1]; first compound 4 µM) | relative viability ([2]; first compound 0.25 µM) | relative viability ([2]; first compound 0.7906 µM) | relative viability ([2]; first compound 2.5 µM) | relative viability ([2]; first compound 7.906 µM) | relative viability ([2]; first compound 25 µM) | relative viability ([3]; first compound 0.25 µM) | relative viability ([3]; first compound 0.7906 µM) | relative viability ([3]; first compound 2.5 µM) | relative viability ([3]; first compound 7.906 µM) | relative viability ([3]; first compound 25 µM) | relative viability ([4]; first compound 0.25 µM) | relative viability ([4]; first compound 0.7906 µM) | relative viability ([4]; first compound 2.5 µM) | relative viability ([4]; first compound 7.906 µM) | relative viability ([4]; first compound 25 µM)
NCI-H2170 | 0.392 | 0.602 | 0.539 | 0.626 | 0.633 | 0.621 | 0.828 | 0.906 | 0.665 | 0.859 | 0.462 | 0.483 | 0.45 | 0.415 | 0.411 | 0.926 | 0.752 | 0.823 | 0.849 | 0.848
HCC-366 | 1.25 | 1.14 | 1.04 | 0.178 | 0.0486 | 0.391 | 0.203 | 0.404 | 0.244 | 0.413 | 0.342 | 0.315 | 0.325 | 0.322 | 0.374 | 0.313 | 0.541 | 0.28 | 0.262 | 0.364
NCI-H2405 | 1.16 | 0.361 | 0.367 | 0.183 | 0.144 | 0.943 |  | 1.11 | 1.03 | 1.21 | 0.72 |  | 0.691 | 0.725 | 0.708 | 0.747 |  | 0.798 | 0.734 | 0.599
COR-L 105 | 0.618 | 0.762 | 0.522 | 0.262 | 0.355 | 0.822 | 1.01 | 0.983 | 0.758 | 0.655 | 0.596 | 0.698 | 0.744 | 0.667 | 0.63 |  |  |  |  | 
201T | 1.16 | 1.19 | 1.18 | 1.21 | 1.14 | 1.02 | 1.14 | 0.956 | 1.07 | 1.18 | 0.877 | 0.885 | 0.842 | 0.939 | 1 | 0.581 | 0.754 | 0.673 | 0.441 | 0.552
NCI-H2228 | 0.759 | 0.841 | 1.07 | 0.927 | 0.833 | 0.576 | 0.96 | 0.957 | 0.724 | 1 |  |  |  |  |  |  |  |  |  | 
LC-2-ad | 0.522 | 0.439 | 0.508 | 0.214 | 0.167 | 0.641 | 0.7 | 0.713 | 0.624 | 0.679 | 0.843 | 0.814 | 0.743 | 0.78 | 0.921 | 0.836 | 0.812 | 0.825 | 0.933 | 0.817
NCI-H2085 | 1.39 | 1.08 | 1.02 | 0.937 | 1.01 | 0.805 | 0.842 | 0.853 | 0.922 | 0.804 | 0.562 | 0.537 | 0.546 | 0.553 | 0.604 | 0.929 | 1.11 | 0.979 | 1.02 | 0.883
NCI-H358 |  |  |  |  |  | 0.698 | 0.729 | 0.698 | 0.737 | 0.453 | 0.238 | 0.194 | 0.242 | 0.169 | 0.177 | 0.584 | 0.569 | 0.528 | 0.442 | 0.369
H3255 | 0.675 | 0.551 | 0.454 | 0.329 | 0.35 | 0.547 | 0.678 | 0.846 | 0.789 | 0.814 | 0.595 | 0.577 | 0.649 | 0.467 | 0.758 | 0.899 | 0.958 | 0.943 | 0.738 | 0.867
NCI-H23 | 1.18 | 0.956 |  | 0.806 | 0.651 | 0.624 |  | 0.565 | 0.54 | 0.601 | 0.298 |  | 0.292 | 0.295 | 0.284 | 0.221 |  | 0.259 | 0.198 | 0.131
CAL-12T | 1.83 | 1.46 | 1.61 | 1.35 | 0.955 | 0.622 | 0.868 | 0.886 | 0.828 | 0.697 |  |  |  |  |  | 0.681 | 0.858 | 0.633 | 0.717 | 0.831
A-427 | 1.04 | 1.07 | 0.887 | 0.964 | 1.01 | 0.84 | 0.922 | 0.904 | 0.878 | 0.956 | 0.554 | 0.479 | 0.546 | 0.521 | 0.514 | 0.772 | 0.879 | 0.701 | 0.737 | 0.636
HARA | 1.19 | 1.02 | 1.09 | 1.18 | 1.14 | 0.537 | 0.533 | 0.567 | 0.597 | 0.502 | 0.768 |  | 0.644 | 0.653 | 0.442 | 0.257 |  | 0.47 | 0.423 | 0.353
NCI-H1793 | 0.315 | 0.38 | 0.305 | 0.191 | 0.238 | 0.907 |  | 0.672 | 0.949 | 0.832 | 0.472 |  | 0.434 | 0.52 | 0.48 | 0.468 |  | 0.631 | 0.404 | 0.348
NCI-H2009 | 1.09 | 0.971 | 0.999 | 0.561 | 0.384 | 0.716 | 0.875 | 0.738 | 0.673 | 0.784 | 0.354 | 0.373 | 0.425 | 0.361 | 0.405 |  |  |  |  | 
ABC-1 |  |  |  |  |  | 1.29 | 1.12 | 1.36 | 0.871 | 0.772 | 1.09 | 0.898 | 1.16 | 0.883 | 0.715 | 0.603 | 0.929 | 0.628 | 0.847 | 0.683
IA-LM | 1.06 | 1.03 | 0.781 | 0.799 | 0.725 | 0.975 | 1.01 | 1.01 |  | 1.17 |  |  |  |  |  |  |  |  |  | 
NCI-H441 | 0.745 | 0.653 | 0.481 | 0.323 | 0.508 | 0.805 | 0.933 | 0.806 | 0.752 | 0.896 | 0.251 | 0.259 | 0.244 | 0.217 | 0.218 | 1.36 | 1.05 | 1.23 | 1.2 | 1.18
